The conditions of series [1]: Example 4; DU 145 prostate tumors in mice; COX 125 ppm in feed; VEGF 100 mg/kg p.o. q.d. 5x/week for three weeks. The protocol:
(§1) 5-methyl-2-(2′-chloro-6′-fluoro-anilino)-phenyl acetic acid (“COX”) and 1-(4-chloroanilino)-4-(4-pyridylmethyl)phthalazine (“VEGFR”) are tested as single agents and together as combination therapy in a mouse model of prostrate cancer (orthoscopically implanted DU 145 prostate tumor cell line) for efficacy against established tumors. VEGFR is administered to the mice orally at 100 mg/kg, 5 times a week for three weeks, as a suspension in 0.5% microcrystalline cellulose, 0.1% Tween 80 in water. COX is administered in the feed mix at a concentration of 125 ppm.

Series [2] relates to DU 145 prostate tumor cell line. Kind of series: mouse model of prostate cancer, efficacy against established tumors. Type of series: in vivo. Particulars: Example 4; DU 145 prostate tumors in mice; COX 125 ppm in feed; VEGF 100 mg/kg p.o. q.d. 5x/week for three weeks. The protocol: as §1
The next series relates to intestinal polyps. As to the kind of experiment: mouse model of adenomatous polyposis, prevention and treatment of intestinal polyps. The series is classed as in vivo. Particulars: COX 125 ppm in feed ad libitum. The protocol:
(§2) 5-methyl-2-(2′-chloro-6′-fluoro-anilino)-phenyl acetic acid (“COX”) and (+)-discodermolide (“disco”) are tested as single agents and together as combination therapy in a mouse model of adenomatous polyposis for the prevention and treatment of intestinal polyps. (+)-Discodermolide is administered once intravenously to the mice at 15 mg/kg as a solution in 16.7% Chremophor EI, 8.3% ethanol, and 75% D5W. COX is administered in the feed mix at a concentration of 125 ppm.
(§3) 5-methyl-2-(2′-chloro-6′-fluoro-anilino)-phenyl acetic acid (“COX”) and (R)-4-(4-((1-phenylethyl)amino)-7H-pyrrolo(2,3-d)pyrimidin-6-yl)-phenol (“EGFR”) are tested as single agents and together as combination therapy in a mouse model of adenomatous polyposis for the prevention and treatment of intestinal polyps. EGFR is administered to the mice orally at 50 mg/kg, as a suspension in 0.5% carboxymethylcellulose, b.i.d., 5 days a week for three weeks. COX is administered in the feed mix at a concentration of 125 ppm.
(§4) 5-methyl-2-(2′-chloro-6′-fluoro-anilino)-phenyl acetic acid (“COX”) and 1-(4-chloroanilino)-4-(4-pyridylmethyl)phthalazine (“VEGFR”) are tested as single agents and together as combination therapy in a mouse model of adenomatous polyposis for the prevention and treatment of intestinal polyps. VEGFR is administered to the mice orally at 100 mg/kg, 5 times a week for three weeks. COX is administered in the feed mix at a concentration of 125 ppm.

For series [3] the following is noted: COX 125 ppm in feed ad libitum. The protocol: as §2, §3, §4
Series [4] deals with tumor vascular permeability. The following applies: studies in humans; cited from earlier work.
Where [5] appears, read: Example 1, first experiment, disco 15 mg/kg i.v. once.
Setting [6] is: Example 1, second (duplicate) experiment, disco 15 mg/kg i.v. once.
Setting [7] is: Example 2, first experiment, EGFR 50 mg/kg p.o. b.i.d. 5x/week for three weeks.
Where [8] appears, read: Example 2, second (duplicate) experiment, EGFR 50 mg/kg p.o. b.i.d. 5x/week for three weeks.
Where [9] appears, read: Example 3, first experiment, VEGF 100 mg/kg p.o. 5x/week for three weeks.
Where [10] appears, read: Example 3, second (duplicate) experiment, VEGF 100 mg/kg p.o. 5x/week for three weeks.

The values below come from patent publication US20110046190A1, “COMBINATIONS COMPRISING A SELECTIVE CYCLOOXYGENASE-2 INHIBITOR” (priority 2001, published 2011).

Where two headings read alike, the source gives them in different places.

Consider `Cc1ccc(Nc2c(F)cccc2Cl)c(CC(=O)O)c1` [COX, 5-methyl-2-(2′-chloro-6′-fluoro-anilino)-phenyl acetic acid], for which the Dead/Total is 1/12 in series [1]; 0/7 in series [3] (setting [5]); 0/7 in series [3] (setting [6]); 0/7 in series [3] (setting [7]); 0/7 in series [3] (setting [8]); 0/7 in series [3] (setting [9]). The Dead/Total in series [3] (setting [10]) is 0/7. The “% T/C (tumors)” value in series [2] amounted to 80%. Further, the “Mean Tumor Weight (mg ± SEM)” value in series [2] is 343 ± 52 mg. Also, the “% T/C (polyps)” value amounted to 56% with intestinal polyps (setting [5]); 57% with intestinal polyps (setting [6]); 43% in the series on intestinal polyps (setting [7]); 36% with intestinal polyps (setting [8]); 44% with intestinal polyps (setting [9]); 44% with intestinal polyps (setting [10]). For the same molecule, the “Mean Intestinal Polyp Count (# ± SEM)” value in the series on intestinal polyps (setting [5]) was 15 ± 0.4 #; in the series on intestinal polyps (setting [6]) it was 13 ± 0.2 #; with intestinal polyps (setting [7]), 9 ± 0.4 #; in the series on intestinal polyps (setting [8]), 12 ± 0.9 #; in the series on intestinal polyps (setting [9]), 12 ± 0.22 #; in the series with intestinal polyps (setting [10]) it was 13 ± 0.18 #.
As for `C[C@@H](Nc1ncnc2[nH]c(-c3ccc(O)cc3)cc12)c1ccccc1` [EGFR, (R)-4-(4-((1-phenylethyl)amino)-7H-pyrrolo(2,3-d)pyrimidin-6-yl)-phenol], the “% T/C (polyps)” value in the series with intestinal polyps (setting [7]) was 37%; in the series with intestinal polyps (setting [8]), 27%. Besides, the “Mean Intestinal Polyp Count (# ± SEM)” value is given as 8 ± 0.2 # in the series with intestinal polyps (setting [7]) and 9 ± 0.3 # with intestinal polyps (setting [8]). Also, the Dead/Total in series [3] (setting [7]) and in series [3] (setting [8]) was 0/7 throughout.
Regarding `Clc1ccc(Nc2nnc(Cc3ccncc3)c3ccccc23)cc1` [VEGF, 1-(4-chloroanilino)-4-(4-pyridylmethyl)phthalazine], the Dead/Total in series [1] is on record as 1/12. In series [2], the “% T/C (tumors)” value came out at 57% and the “Mean Tumor Weight (mg ± SEM)” value was 243 ± 37 mg. In the series with intestinal polyps (setting [9]), the “% T/C (polyps)” value is 57% and the “Mean Intestinal Polyp Count (# ± SEM)” value is listed as 15 ± 0.48 #. Moreover, in the series with intestinal polyps (setting [10]), the “% T/C (polyps)” value was 60% and the “Mean Intestinal Polyp Count (# ± SEM)” value was 17 ± 0.19 #. In addition, the Dead/Total in series [3] (setting [9]) is recorded as 0/6. In addition, the Dead/Total in series [3] (setting [10]) is 0/7. In series [4], the tolerability result is on record as “well tolerated” and the tumor vascular permeability entry is “reduce tumor vascular permeability”.
In the case of (+)-discodermolide, in the series on intestinal polyps (setting [5]), the “% T/C (polyps)” value is reported as 56% and the “Mean Intestinal Polyp Count (# ± SEM)” value is given as 15 ± 0.2 #. Also, in the series with intestinal polyps (setting [6]), the “% T/C (polyps)” value turned out to be 64% and the “Mean Intestinal Polyp Count (# ± SEM)” value was 15 ± 0.22 #. Further, in series [3] (setting [5]), the “% Body Wt. Change” value is “+0.9 ± 0.1%” and the Dead/Total was 0/7. Besides, in series [3] (setting [6]), the “% Body Wt. Change” value is “+4.0 ± 0.12%” and the Dead/Total is on record as 0/7.
